Laboratory results as given in patent US20210121426A1, “BLOOD PURIFICATION BY ALKALINIZING AGENT” (TOHOKU UNIVERSITY, priority 2017, published 2021).
Marks after values point to notes of the source that are not given here.

Experiments:
β2-microglobulin = experiment: Human clinical trial: urinary β2-microglobulin (latex agglutination method); type: in vivo
Protocol: (§1) 1. […] Patients were assigned to each group so that age, sex, presence of diabetes, and eGFR were not biased. Each group was treated according to the “CKD medical care guide-summary of treatment” (hereinafter referred to as standard treatment).
(§2) An alkalinizing agent was not administered to the control group. […] A pH of early morning urine was controlled over time so that the dosage could be increased up to 6 tablets, 3 times a day (morning, noon, evening) as needed according to the discretion of the physician in cases where a pH of early morning urine was less than pH 6.5. To the group B, 3 tablets a day in which each tablet contained 500 mg of sodium bicarbonate were orally administered 3 times a day (morning, noon, evening) for 24 weeks. A pH of early morning urine was controlled over time so that the dosage could be increased up to 6 tablets, 3 times a day (morning, noon, evening) as needed according to the discretion of the physician in cases where a pH of early morning urine was less than pH 6.5.
Early morning urine and blood were collected before the start of administration, and 6 weeks, 12 weeks, and 24 weeks after the start of administration, and each specimen was stored at −80° C. Methods used in the present field for indoxyl sulfate, p-cresyl sulfate, phenylacetyl-L-glutamine, hippuric acid, and argininosuccinic acid in urine and blood (Sato, E., et. al., Metabolic alteration by indoxyl sulfate in skeletal muscle induce uremic sarcopenia in chronic kidney disease., Sci Rep. 2016 Nov. 10; 6:36618. doi: 10.1038/srep36618, and the like) were referred to, and quantitative analysis was performed using the following liquid chromatography triple quadrupole mass spectrometer (LC-MS/MS).
In addition, the amount of urinary β2-microglobulin was measured by latex agglutination method using the LZ test “Eiken” β2-M and LZ-β2-M standard U “Eiken” (Eiken Chemical Co., Tokyo, Japan). Furthermore, the amount of cystatin C in the serum was measured by a colloidal gold agglutination method using Nescoat GC Cystatin C (Nm) (Alfresa Pharma, Osaka, Japan).
For statistical analysis, the Mann-Whitney test was used for comparison between groups, and the Wilcoxon test was used for comparison of changes over time. The Pearson test was used for correlation.

[1] = Human clinical trial: osmotic pressure of early morning urine (freezing point depression method); type: in vivo
Protocol: as §1, §2
The osmotic pressure was measured using the freezing point depression method.

[2] = Human clinical trial: urinary specific gravity of early morning urine (urine hydrometer); type: in vivo
Protocol: as §1, §2
In addition, amounts of change in each urinary specific gravity after 6, 12, and 24 weeks after the start of the test are respectively shown as a % relative value with respect to each urinary specific gravity before the start of the test, and a difference from urinary specific gravity before the start of the teste in Tables 11-0-2 and 11-0-3. The urinary specific gravity was measured using a urine hydrometer (PAL-09S, Atago Co., Ltd., Tokyo, Japan).

p-cresyl sulfate = experiment: Urine p-cresyl sulfate (PCS) corrected by urinary specific gravity; type: in vivo, human
Description: Medical Examination, Vol. 44, No. 1, 1995, pages 79-83 by Tetsuo Aoki et al. was referred to. A urinary specific gravity 1.022 was converted into a reference value.
Specific gravity correction value (unit/1.022·UG)=actual measurement value×(1.022−1.000)/(specific gravity value−1.000)

[3] = 6-24 W, all data of 6, 12 and 24 weeks
[4] = 0 W, before the start of the test
[5] = over 6, 12 and 24 weeks, compared with the control group

With `O=C([O-])O.[Na+]` [Bicarbonate, sodium bicarbonate] the “Urine B2-microglobulin” value (β2-microglobulin; 0 W, before the start of administration) was 99.0 ± 62.8 µg/L, the “Urine B2-microglobulin” value (β2-microglobulin; [3]) was 206.2 ± 255.8^a μg/L and the “Urine B2-microglobulin, change from week 0” value (β2-microglobulin; [3]) was 148.3 ± 258.4 ^b ug/L. The “Urine B2-microglobulin” value (β2-microglobulin; 6 W) was 216.3 ± 228.2^e μg/L, the “Urine B2-microglobulin, change from week 0” value (β2-microglobulin; 6 W) was 117.3 ± 220.7 µg/L and the “Urine B2-microglobulin” value (β2-microglobulin; 12 W) was 264.5 ± 301.9 µg/L. The “Urine B2-microglobulin, change from week 0” value (β2-microglobulin; 12 W) was 165.5 ± 282.0^ ug/L, the “Urine B2-microglobulin” value (β2-microglobulin; 24 W) was 261.0 ± 301.5^c,f μg/L and the “Urine B2-microglobulin, change from week 0” value (β2-microglobulin; 24 W) was 162.0 ± 281.8 ^c ug/L. The “kidney tubular damage (kidney proximal tubular damage) associated with progression of the stage” value (β2-microglobulin; from urinary β2-microglobulin) was “did not suppress”, the “Urine Osmotic Pressure” value [1, 4] was 492 ± 206 mOsm/kg and the “Urine Osmotic Pressure” value ([1]; 6-24 W, all data) was 486 ± 164 mOsm/kg. For the same compound, the “Urine Osmotic Pressure (% Relative value vs week 0)” value ([1]; 6-24 W, all data) was 109 ± 45^b %, the “Urine Osmotic Pressure, difference vs week 0” value ([1]; 6-24 W, all data) was −6 ± 168 mOsm/kg and the “Urine Osmotic Pressure” value ([1]; 6 W) was 488 ± 154 mOsm/kg. For the same compound, the “Urine Osmotic Pressure (% Relative value vs week 0)” value ([1]; 6 W) was 108 ± 34%, the “Urine Osmotic Pressure, difference vs week 0” value ([1]; 6 W) was −4 ± 165 mOsm/kg and the “Urine Osmotic Pressure” value ([1]; 12 W) was 456 ± 143 mOsm/kg. The “Urine Osmotic Pressure (% Relative value vs week 0)” value ([1]; 12 W) was 105 ± 57%, the “Urine Osmotic Pressure, difference vs week 0” value ([1]; 12 W) was −36 ± 176^ mOsm/kg and the “Urine Osmotic Pressure” value ([1]; 24 W) was 515 ± 195 mOsm/kg. For the same compound, the “Urine Osmotic Pressure (% Relative value vs week 0)” value ([1]; 24 W) was 114 ± 45%, the “Urine Osmotic Pressure, difference vs week 0” value ([1]; 24 W) was 23 ± 169 mOsm/kg and the “osmotic pressure value of early morning urine” value [1, 5] was “maintained or increased”. The “Urine Specific Gravity” value [2, 4] was 1.014 ± 0.007, the “Urine Specific Gravity” value ([2]; 6-24 W, all data) was 1.014 ± 0.006 and the “Urine Specific Gravity (% Relative value vs week 0)” value ([2]; 6-24 W, all data) was 100.00 ± 0.67%. For the same compound, the “Urine Specific Gravity, difference vs week 0” value ([2]; 6-24 W, all data) was 0.0002 ± 0.0058^b, the “Urine Specific Gravity” value ([2]; 6 W) was 1.014 ± 0.006 and the “Urine Specific Gravity (% Relative value vs week 0)” value ([2]; 6 W) was 100.02 ± 0.53%. For the same compound, the “Urine Specific Gravity, difference vs week 0” value ([2]; 6 W) was 0.0002 ± 0.0054, the “Urine Specific Gravity” value ([2]; 12 W) was 1.013 ± 0.005 and the “Urine Specific Gravity (% Relative value vs week 0)” value ([2]; 12 W) was 99.89 ± 0.58^e %. For the same compound, the “Urine Specific Gravity, difference vs week 0” value ([2]; 12 W) was −0.0012 ± 0.0058^e, the “Urine Specific Gravity” value ([2]; 24 W) was 1.016 ± 0.007 and the “Urine Specific Gravity (% Relative value vs week 0)” value ([2]; 24 W) was 100.17 ± 0.61%. The “Urine Specific Gravity, difference vs week 0” value ([2]; 24 W) was 0.0017 ± 0.0062, the “urinary specific gravity value” [2, 5] was “maintained or increased” and the “Urine PCS, specific gravity corrected” value (p-cresyl sulfate; 0 W) was 113.0 ± 119.5 μg · mL^−1/1.022 · UG. The “Urine PCS, specific gravity corrected” value (p-cresyl sulfate; 6-24 W, all data) was 83.2 ± 93.2 μg · mL^−1/1.022 · UG, the “Urine PCS, specific gravity corrected, % Relative value vs week 0” value (“Urine PCS … % Relative value vs week 0” below) (p-cresyl sulfate; 6-24 W, all data) was 151 ± 323^b,e % and the “Urine PCS, specific gravity corrected, difference vs week 0” value (“Urine PCS … difference vs week 0” below) (p-cresyl sulfate; 6-24 W, all data) was −29.8 ± 66.1^b,d μg · mL^−1/1.022 · UG. The “Urine PCS, specific gravity corrected” value (p-cresyl sulfate; 6 W) was 98.1 ± 118.3 μg · mL^−1/1.022 · UG, the “Urine PCS … % Relative value vs week 0” value (p-cresyl sulfate; 6 W) was 83 ± 34^d,g % and the “Urine PCS, specific gravity corrected” value (p-cresyl sulfate; 12 W) was 66.7 ± 73.0 μg · mL^−1/1.022 · UG. The “Urine PCS … % Relative value vs week 0” value (p-cresyl sulfate; 12 W) was 105 ± 112%, the “Urine PCS … difference vs week 0” value (p-cresyl sulfate; 12 W) was −46.3 ± 68.4^d,g μg · mL^−1/1.022 · UG and the “Urine PCS, specific gravity corrected” value (p-cresyl sulfate; 24 W) was 84.8 ± 86.0 μg · mL^−1/1.022 · UG. For the same compound, the “Urine PCS … % Relative value vs week 0” value (p-cresyl sulfate; 24 W) was 265 ± 540% and the “Urine PCS … difference vs week 0” value (p-cresyl sulfate; 24 W) was −28.3 ± 84.4^ μg · mL^−1/1.022 · UG.
